Entries after “also recorded” stand apart in the source; their conditions may differ. Like-named read-outs stand apart in the source and are kept apart here.

Experiment [1] deals with T1, P. wynnii beta-galactosidase (SEQ ID NO: 1) (Paenibacillus wynnii, UniProt A0A098MAF9). Put plainly: Influence of galactose on the enzyme activity, lactose assay. Conditions: 8 °C. Type of experiment: biochemical. How it is done:
(§1) For the substrate solution 400 mM lactose was dissolved in Novo buffer (the composition of which is depicted in Table 4). The beta-galactosidase activity was determined in a thermo shaker in 1.5 mL reaction tubes at 8°C. The enzyme mix and the lactose solution were preincubated at 8 °C for 12 min. To start the enzymatic reaction 100 µL of the enzyme mix were added to 100 µL lactose solution. The reaction was carried out for 5 min at 8 °C. The reaction was stopped by adding 300 µL 1 M HClO4 to the enzyme-substrate-mix. The mix was kept on ice for 5 min before it was centrifuged at 13 000 rcf and 4 °C for 5 min. 160 µL of the supernatant were transferred to 75 µL 2 M KOH to neutralise the solution. The neutralisation step was checked using pH paper and the pH was adjusted if necessary. The solution was kept on ice for another 5 min before it was centrifuged at 13 000 rcf at 4 °C for 5 min. All assays were performed in triplicate. Table 4: Composition of Novo buffer
(§2) The influence of galactose was investigated with P. wynnii beta-galactosidase and the commercial beta-galactosidase Opti-Lactase (Optiferm GmbH, Oy-Mittelberg (D)). The determination of the enzyme activity in Novo buffer was conducted with a lactose concentration of 125 mM and 50 mM respectively. To this solutions 125 or 200 mM galactose were added. The determination of the enzyme activity was performed as described above.
(§3) First, 125 and 200 mM galactose respectively were added to 125 mM lactose (A). The enzyme activity of the technical enzyme preparation decreased with increasing galactose concentration. An activity of 51.8 % was determined. […] In another experiment 200 mM galactose was added to 50 mM lactose (B). Here, the same effect as in (A) could be observed.

In experiment [2] the target is commercial beta-galactosidase Opti-Lactase (K. lactis) (Kluyveromyces lactis, UniProt P00723). Described as above. Format: biochemical. The conditions noted are these: 200 mM galactose, 8 °C, substrate Lactose. How it is done: as §1, §2, §3
Experiment [3] relates to Metagenome M1 beta-galactosidase (metagenome beta-galactosidase 3J33 as described in EP 2 530 148 A1). As to the kind of experiment: Influence of glucose and galactose on the enzyme activity, oNPGal assay. Format: biochemical. Conditions: 200 mM galactose, 37 °C, substrate oNPGal. The protocol:
(§4) The enzyme activity of beta-galactosidase was determined in 1.2 mL scale using oNPGal as substrate at 37 °C. For the assays a final concentration of 25 mM oNPGal dissolved in 100 mM potassium phosphate buffer (pH 6.75 containing 5 mM magnesium chloride) was used. Substrate and enzyme solution were preheated separately. The reaction was performed in a temperature-controlled cuvette using a spectrophotometer by adding enzyme solution to oNPGal solution. The increase of absorbance at 405 nm as result of o-nitrophenol release was measured for 2 min. The activity was calculated from the slope of the straight line.
(§5) Due to the experimental setup (analysis), it was not possible to measure the influence of glucose with the natural substrate lactose.

Experiment [4] addresses T1, P. wynnii beta-galactosidase (SEQ ID NO: 1). The description is as above. Format: biochemical. The conditions noted are these: pH 6.75, 200 mM Galactose, 37 °C, read-out: Relative enzyme activity. How it is done: as §4, §5
Experiment [5] relates to Metagenome M1 beta-galactosidase (metagenome beta-galactosidase 3J33 as described in EP 2 530 148 A1). As to the kind of experiment: Influence of galactose on the enzyme activity, lactose assay. Format: biochemical. Conditions: 8 °C; for Relative enzyme activity: Lactose-Assay. How it is done: as §1
The influence of galactose was also investigated with the metagenome M1 beta-galactosidase as described before. The determination of the enzyme activity in Novo buffer was conducted with a lactose concentration of 125 mM and 50 mM respectively. To this solutions 125 or 200 mM galactose were added.

In experiment [6] the target is K. lactis beta-galactosidase (Kluyveromyces lactis, UniProt P00723). The conditions noted are these: 200 mM galactose, 37 °C, substrate oNPGal; cited from earlier work.
Experiment [7] deals with P. barengoltzii beta-galactosidase. Conditions: 200 mM galactose, 45 °C, substrate oNPGal; cited from earlier work.
Experiment [8] has as its target T1, P. wynnii beta-galactosidase (SEQ ID NO: 1). As to the kind of experiment: Determination of KM with lactose as substrate. Type of experiment: biochemical. The conditions noted are these: Novo-buffer, 8 °C. How it is done: as §1, with “The solution was kept on ice for another 5 min before it was centrifuged at 13 000 rcf at 4 °C for 5 min. All assays were performed in triplicate. Table 4: Composition of Novo buffer” left out
The kinetic parameters were determined using the natural substrate lactose. […]
For the determination of the KM values of P. wynnii beta-galactosidase lactose concentrations ranged from 0.76 mM to 97.5 mM. […] The enzyme activities were measured under initial reaction velocity conditions of the enzyme. The reaction times for the initial velocity of the enzymes were determined in previous experiments. The kinetic parameter KM was analysed using the Enzyme Kinetics Module in SigmaPlot 12.5 (Systat Software, Inc., San Jose, USA). […]

For experiment [9], the system named is Metagenome M1 beta-galactosidase (metagenome beta-galactosidase 3J33 as described in EP 2 530 148 A1). As to the kind of experiment: Turnover number with lactose as substrate. Format: biochemical. Conditions: 8 °C. How it is done: To determine the turnover number, the specific activity of the enzymes on lactose at 8 °C was determined. The following formula was used to determine the turnover number: Kcat = (Vmax)/([E]) [s^−1] [formula] • Kcat = turnover number [s^-1] • Vmax = maximum activity [nkat/mg] • [E] = enzyme concentration […]
In Table 9, the calculated turnover numbers of the two beta-galactosidases are depicted. Table 9: Turnover numbers of the beta-galactosidases M1 and P. wynnii (8 °C, lactose as substrate)

Experiment [10] shares this test system. Conditions: 8 °C, read-out: KM,lactose, cited from earlier work.
Experiment [11] has as its system Bacillus circulans beta-galactosidase. Conditions: phosphate buffer, 40 °C; read-out: KM,lactose; cited from earlier work.
Experiment [12] relates to beta-galactosidase PbGal2A from P. barengoltzii. The conditions noted are these: read-out: KM,lactose, cited from earlier work.

T1 sequence (A0A098MAF9 1-1042): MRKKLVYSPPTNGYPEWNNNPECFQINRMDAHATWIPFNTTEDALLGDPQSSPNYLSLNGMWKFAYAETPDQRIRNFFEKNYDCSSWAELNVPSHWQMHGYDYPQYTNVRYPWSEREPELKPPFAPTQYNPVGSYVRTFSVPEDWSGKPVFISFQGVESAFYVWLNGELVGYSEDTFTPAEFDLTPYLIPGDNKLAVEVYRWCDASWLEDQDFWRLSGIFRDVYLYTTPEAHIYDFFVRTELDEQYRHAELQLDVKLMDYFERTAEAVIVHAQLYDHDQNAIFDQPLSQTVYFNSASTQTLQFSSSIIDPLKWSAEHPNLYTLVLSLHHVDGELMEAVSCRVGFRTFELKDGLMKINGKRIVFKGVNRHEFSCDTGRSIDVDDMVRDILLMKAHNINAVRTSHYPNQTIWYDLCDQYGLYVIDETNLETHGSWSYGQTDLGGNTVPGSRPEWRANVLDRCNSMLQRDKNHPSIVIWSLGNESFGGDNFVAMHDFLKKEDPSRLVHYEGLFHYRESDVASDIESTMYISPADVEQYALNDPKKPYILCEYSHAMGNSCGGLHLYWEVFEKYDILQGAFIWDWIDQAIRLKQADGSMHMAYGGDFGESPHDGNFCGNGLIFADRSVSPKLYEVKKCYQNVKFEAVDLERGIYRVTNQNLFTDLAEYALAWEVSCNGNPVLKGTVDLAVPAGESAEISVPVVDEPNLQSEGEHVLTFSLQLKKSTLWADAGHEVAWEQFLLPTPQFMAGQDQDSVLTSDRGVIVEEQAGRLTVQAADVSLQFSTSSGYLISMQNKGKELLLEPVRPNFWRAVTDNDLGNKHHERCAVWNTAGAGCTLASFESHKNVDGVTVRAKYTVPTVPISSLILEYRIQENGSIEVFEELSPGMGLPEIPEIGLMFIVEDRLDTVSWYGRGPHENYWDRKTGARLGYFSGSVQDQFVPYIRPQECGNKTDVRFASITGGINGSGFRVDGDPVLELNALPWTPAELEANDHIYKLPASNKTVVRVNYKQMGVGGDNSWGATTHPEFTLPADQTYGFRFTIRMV
Chain of commercial beta-galactosidase Opti-Lactase (K. lactis) (P00723 whole entry): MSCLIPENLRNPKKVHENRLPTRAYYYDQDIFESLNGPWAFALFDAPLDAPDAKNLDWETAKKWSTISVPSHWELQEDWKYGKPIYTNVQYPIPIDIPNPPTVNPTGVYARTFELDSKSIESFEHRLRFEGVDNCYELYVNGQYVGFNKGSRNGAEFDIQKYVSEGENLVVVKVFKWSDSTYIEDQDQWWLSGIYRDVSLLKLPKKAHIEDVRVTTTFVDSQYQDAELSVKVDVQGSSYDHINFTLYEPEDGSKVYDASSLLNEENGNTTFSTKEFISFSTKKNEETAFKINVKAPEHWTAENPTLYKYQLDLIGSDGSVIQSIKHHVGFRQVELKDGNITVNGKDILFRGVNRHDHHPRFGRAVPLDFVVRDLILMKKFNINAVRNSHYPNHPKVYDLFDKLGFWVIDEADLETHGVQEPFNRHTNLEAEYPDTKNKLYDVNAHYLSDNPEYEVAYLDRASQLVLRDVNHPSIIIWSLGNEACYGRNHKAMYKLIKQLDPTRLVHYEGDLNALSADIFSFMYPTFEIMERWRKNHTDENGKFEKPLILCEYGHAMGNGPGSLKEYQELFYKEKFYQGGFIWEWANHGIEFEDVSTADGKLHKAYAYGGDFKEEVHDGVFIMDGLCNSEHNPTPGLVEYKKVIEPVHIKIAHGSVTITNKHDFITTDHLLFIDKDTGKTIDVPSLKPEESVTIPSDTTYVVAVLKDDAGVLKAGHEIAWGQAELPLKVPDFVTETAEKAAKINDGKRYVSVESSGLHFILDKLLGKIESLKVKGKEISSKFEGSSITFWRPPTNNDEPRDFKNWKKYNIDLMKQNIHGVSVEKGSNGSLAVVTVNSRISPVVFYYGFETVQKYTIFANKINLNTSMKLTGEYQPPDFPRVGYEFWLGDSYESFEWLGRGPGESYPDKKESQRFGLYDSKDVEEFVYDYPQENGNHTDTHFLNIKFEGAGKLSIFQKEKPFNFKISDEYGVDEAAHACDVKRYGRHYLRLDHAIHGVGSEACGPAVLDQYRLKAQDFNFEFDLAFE
Chain of K. lactis beta-galactosidase (P00723 whole entry): as above

In the case of `OC[C@H]1OC(O)[C@H](O)[C@@H](O)[C@H]1O` (stereo partly drawn) [galactose, D-galactose], the activity at 200000 µM in experiment [1] (200 mM galactose, substrate Lactose) worked out at 100%; in experiment [2] it was 32.5%. Moreover, the remaining activity at 200000 µM was 110% in [1] (5 min, 50 mM lactose + 200 mM galactose, Lactose-Assay, read-out: Relative enzyme activity); 115% in [1] (5 min, 125 mM lactose + 200 mM galactose, Lactose-Assay, read-out: Relative enzyme activity); 118% in [4]. Moreover, the remaining activity at 125000 µM in [1] (5 min, 125 mM lactose + 125 mM galactose, Lactose-Assay, read-out: Relative enzyme activity) came out at 108%. Besides, the inhibition by galactose result was “No inhibition; also recorded: did not have an inhibitory effect” in experiment [1] (galactose up to 200 mM, Novo buffer, lactose as substrate) and “did also not have an inhibitory effect” in [5] (125 or 200 mM galactose, 125 or 50 mM lactose, Novo buffer). Moreover, the figures for the “Influence of galactose (200 mM)” value in [3], in experiment [6] and in experiment [7] were 100 % EA, 75 % EA and 43.27 % EA, respectively. Also, the results for the Relative enzyme activity in experiment [5] (50 mM lactose + 200 mM galactose), in experiment [5] (125 mM lactose + 125 mM galactose) and in experiment [5] (125 mM lactose + 200 mM galactose) were 100%, 97% and 101%, respectively.
Take `OC[C@H]1O[C@@H](O[C@H]2[C@H](O)[C@@H](O)C(O)O[C@@H]2CO)[C@H](O)[C@@H](O)[C@H]1O` (stereo partly drawn) [lactose]: the Km in [8] is 340 to 520 µM; in experiment [10] (Novo buffer), 1.44 mM; in experiment [10] (milk + Novo buffer), 2.1 mM; in [11], 16 mM; in experiment [12] (MOPS buffer, 45 °C) it was 43.3 mM; in experiment [12], 43.3 ± 1.84 mM. The “Turnover number (Kcat)” value in experiment [9] turned out to be 2.466 s⁻¹.

Values taken from EP3911180B1, “PAENIBACILLUS WYNNII BETA-GALACTOSIDASE FOR THE PRODUCTION OF LACTOSE-DEPLETED AND GOS-ENRICHTED DAIRY PRODUCTS” (Universität Hohenheim, priority 2019, dated 2020).
